Measurements published in paper PMC5218480 (PLoS ONE, 2017).

Test system: MV-4-11 cells
Experiment: Gene expression microarray analysis (Affymetrix PrimeView) and GSEA
Assay type: cell-based, human
Design: RFU PODN (11730768_x_at) / Fold change /veh PODN (11730768_x_at) / RFU LINC00158 (11744669_a_at) / Fold change /veh LINC00158 (11744669_a_at) / RFU DUSP10 (11751237_a_at) / Fold change /veh DUSP10 (11751237_a_at) / RFU ID3 (11757404_x_at) / Fold change /veh ID3 (11757404_x_at) / RFU PLEKHG5 (11737974_s_at) / Fold change /veh PLEKHG5 (11737974_s_at) / RFU LRRC4B (11730491_at) / Fold change /veh LRRC4B (11730491_at) / RFU GIMAP4 (11747438_a_at) / Fold change /veh GIMAP4 (11747438_a_at) / RFU KRT8 (11758183_x_at) / Fold change /veh KRT8 (11758183_x_at) / RFU CNN1 (11734310_a_at) / Fold change /veh CNN1 (11734310_a_at) / RFU VPS37D (11726825_at) / Fold change /veh VPS37D (11726825_at) / RFU C10orf10 (11716522_x_at) / Fold change /veh C10orf10 (11716522_x_at) / RFU KIR2DL2 /// KIR2DL4 /// KIR2DL5A /// KIR2DL5B /// KIR2DS1 /// KIR2DS2 /// KIR2DS3 /// KIR2DS4 /// KIR3DL3 /// KIR3DL3 /// KIR3DS1 (11738374_at) / Fold change /veh KIR2DL2 /// KIR2DL4 /// KIR2DL5A /// KIR2DL5B /// KIR2DS1 /// KIR2DS2 /// KIR2DS3 /// KIR2DS4 /// KIR3DL3 /// KIR3DL3 /// KIR3DS1 (11738374_at) / RFU C1QL1 (11718748_at) / Fold change /veh C1QL1 (11718748_at) / RFU TMPRSS4 (11747572_a_at) / Fold change /veh TMPRSS4 (11747572_a_at) / RFU HAMP (11756126_x_at) / Fold change /veh HAMP (11756126_x_at) / RFU RNFT2 (11725882_a_at) / Fold change /veh RNFT2 (11725882_a_at) / RFU NR4A2 (11747474_a_at) / Fold change /veh NR4A2 (11747474_a_at) / RFU ABCC12 (11746883_a_at) / Fold change /veh ABCC12 (11746883_a_at) / RFU TMEM136 (11760407_x_at) / Fold change /veh TMEM136 (11760407_x_at) / RFU CLDN22 /// WWC2 (11732394_at) / Fold change /veh CLDN22 /// WWC2 (11732394_at) / RFU HLA-DPB1 (11760878_x_at) / Fold change /veh HLA-DPB1 (11760878_x_at) / RFU SPINT1 (11716480_a_at) / Fold change /veh SPINT1 (11716480_a_at) / RFU GAP43 (11754022_s_at) / Fold change /veh GAP43 (11754022_s_at) / RFU A4GNT (11735810_at) / Fold change /veh A4GNT (11735810_at) / RFU PRB3 (11715151_x_at) / Fold change /veh PRB3 (11715151_x_at) / RFU TUBB4B (11761932_at) / Fold change /veh TUBB4B (11761932_at) / RFU CAPN14 (11732068_a_at) / Fold change /veh CAPN14 (11732068_a_at) / RFU TMCC2 (11721928_a_at) / Fold change /veh TMCC2 (11721928_a_at) / RFU IRGQ (11745062_a_at) / Fold change /veh IRGQ (11745062_a_at) / RFU FAM174B (11720279_a_at) / Fold change /veh FAM174B (11720279_a_at) / RFU TMPRSS4 (11748680_a_at) / Fold change /veh TMPRSS4 (11748680_a_at) / RFU FAM212B (11763350_a_at) / Fold change /veh FAM212B (11763350_a_at) / RFU PLEKHG5 (11743358_a_at) / Fold change /veh PLEKHG5 (11743358_a_at) / RFU ZSCAN30 (11745921_a_at) / Fold change /veh ZSCAN30 (11745921_a_at) / RFU CMKLR1 (11741424_a_at) / Fold change /veh CMKLR1 (11741424_a_at) / RFU LOC101060620 /// MAPK8IP1 (11723275_at) / Fold change /veh LOC101060620 /// MAPK8IP1 (11723275_at) / RFU SPTSSB (11747773_x_at) / Fold change /veh SPTSSB (11747773_x_at) / RFU PRSS12 (11739890_at) / Fold change /veh PRSS12 (11739890_at) / RFU BIN1 (11741810_x_at) / Fold change /veh BIN1 (11741810_x_at) / RFU WNT11 (11732464_a_at) / Fold change /veh WNT11 (11732464_a_at) / RFU C10orf10 (11716521_a_at) / Fold change /veh C10orf10 (11716521_a_at) / RFU C5orf56 (11738089_at) / Fold change /veh C5orf56 (11738089_at) / RFU CYB561 (11721691_x_at) / Fold change /veh CYB561 (11721691_x_at) / RFU ANKRD19P (11752326_a_at) / Fold change /veh ANKRD19P (11752326_a_at) / RFU OR2T12 /// OR2T33 /// OR2T8 (11738714_s_at) / Fold change /veh OR2T12 /// OR2T33 /// OR2T8 (11738714_s_at) / RFU VCAN (11748164_a_at) / Fold change /veh VCAN (11748164_a_at) / RFU JSRP1 (11732532_at) / Fold change /veh JSRP1 (11732532_at) / RFU KRTAP10-11 (11738290_x_at) / Fold change /veh KRTAP10-11 (11738290_x_at) / RFU MYO3A (11730013_a_at) / Fold change /veh MYO3A (11730013_a_at) / RFU EBF3 (11725865_a_at) / Fold change /veh EBF3 (11725865_a_at) / RFU CAMK2N1 (11719241_x_at) / Fold change /veh CAMK2N1 (11719241_x_at) / RFU C5orf56 (11738088_a_at) / Fold change /veh C5orf56 (11738088_a_at) / RFU OLFML3 (11715873_a_at) / Fold change /veh OLFML3 (11715873_a_at) / RFU LOC100653217 /// NTM (11731650_a_at) / Fold change /veh LOC100653217 /// NTM (11731650_a_at) / RFU MAPK11 (11762145_a_at) / Fold change /veh MAPK11 (11762145_a_at) / RFU FIZ1 (11724087_x_at) / Fold change /veh FIZ1 (11724087_x_at) / RFU OASL (11726364_x_at) / Fold change /veh OASL (11726364_x_at) / RFU SOX15 (11748057_x_at) / Fold change /veh SOX15 (11748057_x_at) / RFU CD79A (11719716_a_at) / Fold change /veh CD79A (11719716_a_at) / RFU HIST1H1D (11736915_at) / Fold change /veh HIST1H1D (11736915_at) / RFU CASKIN2 (11723855_a_at) / Fold change /veh CASKIN2 (11723855_a_at) / RFU LOC730098 (11760151_x_at) / Fold change /veh LOC730098 (11760151_x_at) / RFU OR4N2 (11742367_at) / Fold change /veh OR4N2 (11742367_at) / RFU PRRT2 (11749266_a_at) / Fold change /veh PRRT2 (11749266_a_at) / RFU SNX32 (11753110_a_at) / Fold change /veh SNX32 (11753110_a_at) / RFU CDHR5 (11726645_a_at) / Fold change /veh CDHR5 (11726645_a_at) / RFU RCAN1 (11760418_a_at) / Fold change /veh RCAN1 (11760418_a_at) / RFU FAM167A (11723789_a_at) / Fold change /veh FAM167A (11723789_a_at) / RFU FAM26E (11764081_at) / Fold change /veh FAM26E (11764081_at) / RFU ISYNA1 (11749810_s_at) / Fold change /veh ISYNA1 (11749810_s_at) / RFU ACY1 (11761880_at) / Fold change /veh ACY1 (11761880_at) / RFU 11764098_at / Fold change /veh 11764098_at / RFU SAMD14 (11745864_x_at) / Fold change /veh SAMD14 (11745864_x_at) / RFU NPB (11741838_a_at) / Fold change /veh NPB (11741838_a_at) / RFU TMPRSS6 (11731388_a_at) / Fold change /veh TMPRSS6 (11731388_a_at) / RFU KRTAP10-2 (11738614_at) / Fold change /veh KRTAP10-2 (11738614_at) / RFU ARHGAP8 /// PRR5-ARHGAP8 (11727945_x_at) / Fold change /veh ARHGAP8 /// PRR5-ARHGAP8 (11727945_x_at) / RFU KRTAP5-7 /// NADSYN1 (11734609_at) / Fold change /veh KRTAP5-7 /// NADSYN1 (11734609_at) / RFU RASL12 (11751679_a_at) / Fold change /veh RASL12 (11751679_a_at) / RFU CDKN2B (11736163_a_at) / Fold change /veh CDKN2B (11736163_a_at) / RFU PRF1 (11729649_at) / Fold change /veh PRF1 (11729649_at) / RFU, ZNF638 /// ZNF638-IT1 / Fold change vs veh, ZNF638 /// ZNF638-IT1 / RFU, PANK3 / Fold change vs veh, PANK3 / RFU, SH3YL1 / Fold change vs veh, SH3YL1 / RFU, ZEB2 / Fold change vs veh, ZEB2 / RFU, NRIP1 / Fold change vs veh, NRIP1 / RFU, PTTG1IP / Fold change vs veh, PTTG1IP / RFU, CAPN2 / Fold change vs veh, CAPN2 / RFU, MED14 / Fold change vs veh, MED14 / RFU, SNORA58 / Fold change vs veh, SNORA58 / RFU, C1orf63 / Fold change vs veh, C1orf63 / RFU, LRRFIP1 / Fold change vs veh, LRRFIP1 / RFU, NDUFAF7 / Fold change vs veh, NDUFAF7 / RFU, SLC12A2 / Fold change vs veh, SLC12A2 / RFU, IBTK / Fold change vs veh, IBTK / RFU, ESF1 / Fold change vs veh, ESF1 / Fold change vs veh, TMEM50B / RFU, TAOK1 / Fold change vs veh, TAOK1 / RFU, ACBD3 / Fold change vs veh, ACBD3 / RFU, TMA16 / Fold change vs veh, TMA16 / RFU, RWDD3 / Fold change vs veh, RWDD3 / RFU, BCAT1 / Fold change vs veh, BCAT1 / RFU, EDEM3 / Fold change vs veh, EDEM3 / RFU, TMEM33 / Fold change vs veh, TMEM33 / RFU, WDR75 / Fold change vs veh, WDR75 / RFU, AHCTF1 / Fold change vs veh, AHCTF1 / RFU, TFRC / Fold change vs veh, TFRC / RFU, ZDHHC17 / Fold change vs veh, ZDHHC17 / RFU, NOM1 / Fold change vs veh, NOM1 / RFU, ARL8B / Fold change vs veh, ARL8B / RFU, ZBTB11 / Fold change vs veh, ZBTB11 / RFU, TAMM41 / Fold change vs veh, TAMM41 / RFU, KIAA1704 /// LOC100996395 / Fold change vs veh, KIAA1704 /// LOC100996395 / RFU, ING1 / Fold change vs veh, ING1 / RFU, TRMT61B / Fold change vs veh, TRMT61B / RFU, FUBP3 / Fold change vs veh, FUBP3 / RFU, TP53 / Fold change vs veh, TP53 / RFU, TNKS2 / Fold change vs veh, TNKS2 / RFU, ZFP14 / Fold change vs veh, ZFP14 / RFU, ACTR2 / Fold change vs veh, ACTR2 / RFU, PPP3R1 / Fold change vs veh, PPP3R1 / RFU, PIK3R1 / Fold change vs veh, PIK3R1 / RFU, HNRNPA1 / Fold change vs veh, HNRNPA1 / RFU, RNF170 / Fold change vs veh, RNF170 / RFU, ZNF28 / Fold change vs veh, ZNF28 / RFU, RNGTT / Fold change vs veh, RNGTT / RFU, OGT / Fold change vs veh, OGT / RFU, BRD1 / Fold change vs veh, BRD1 / RFU, MARS / Fold change vs veh, MARS / RFU, ZNF655 / Fold change vs veh, ZNF655 / RFU, FAHD1 / Fold change vs veh, FAHD1 / RFU, BDP1 / Fold change vs veh, BDP1 / RFU, LRRCC1 / Fold change vs veh, LRRCC1 / RFU, ARID1A / Fold change vs veh, ARID1A / RFU, ZNF146 / Fold change vs veh, ZNF146 / RFU, ZNF330 / Fold change vs veh, ZNF330 / RFU, GPN3 / Fold change vs veh, GPN3 / RFU, C9orf123 / Fold change vs veh, C9orf123 / RFU, N4BP2L2 / Fold change vs veh, N4BP2L2 / RFU, ARFIP1 / Fold change vs veh, ARFIP1 / RFU, FAM179B / Fold change vs veh, FAM179B / RFU, BCL10 / Fold change vs veh, BCL10 / RFU, UHRF1BP1L / Fold change vs veh, UHRF1BP1L / RFU, BET1 / Fold change vs veh, BET1 / RFU, CNOT2 / Fold change vs veh, CNOT2 / RFU, ZNF268 / Fold change vs veh, ZNF268 / Fold change vs veh, ZNF507 / RFU, DGCR2 / Fold change vs veh, DGCR2 / RFU, WDSUB1 / Fold change vs veh, WDSUB1 / Fold change vs veh, HSP90B1 /// MIR3652 / RFU, ADSS / Fold change vs veh, ADSS / RFU, GK / Fold change vs veh, GK / RFU, ZNF148 / Fold change vs veh, ZNF148 / RFU, TAF9 / Fold change vs veh, TAF9 / RFU, SLC1A5 / Fold change vs veh, SLC1A5 / RFU, SLMO2 / Fold change vs veh, SLMO2 / RFU, ABCC4 / Fold change vs veh, ABCC4 / RFU, LOC101060439 /// RAP1B / Fold change vs veh, LOC101060439 /// RAP1B / RFU, RFX7 / Fold change vs veh, RFX7 / RFU, GTPBP10 / Fold change vs veh, GTPBP10 / RFU, CNEP1R1 / Fold change vs veh, CNEP1R1 / RFU, BIVM-ERCC5 /// ERCC5 / Fold change vs veh, BIVM-ERCC5 /// ERCC5 / RFU, ILF3 / Fold change vs veh, ILF3 / RFU 11762660_at / Fold change /veh 11762660_at / RFU VCAN (11757783_s_at) / Fold change /veh VCAN (11757783_s_at) / RFU DDX43 (11728927_at) / Fold change /veh DDX43 (11728927_at) / RFU KRT8 (11758188_x_at) / Fold change /veh KRT8 (11758188_x_at) / RFU NKD1 (11759106_at) / Fold change /veh NKD1 (11759106_at) / RFU SRD5A1 (11742802_a_at) / Fold change /veh SRD5A1 (11742802_a_at) / RFU TPSAB1 /// TPSB2 (11721975_s_at) / Fold change /veh TPSAB1 /// TPSB2 (11721975_s_at) / RFU GSTM3 (11746129_a_at) / Fold change /veh GSTM3 (11746129_a_at) / RFU IL23R (11737362_x_at) / Fold change /veh IL23R (11737362_x_at) / RFU TMEM51 (11727254_a_at) / Fold change /veh TMEM51 (11727254_a_at) / RFU PIWIL2 (11732686_x_at) / Fold change /veh PIWIL2 (11732686_x_at) / RFU ORM1 (11744905_x_at) / Fold change /veh ORM1 (11744905_x_at) / RFU CCDC152 (11743942_at) / Fold change /veh CCDC152 (11743942_at) / RFU ECM1 (11717891_a_at) / Fold change /veh ECM1 (11717891_a_at) / RFU IL23R (11748794_a_at) / Fold change /veh IL23R (11748794_a_at) / RFU TNFAIP8L3 (11732012_x_at) / Fold change /veh TNFAIP8L3 (11732012_x_at) / RFU MBOAT4 (11741988_at) / Fold change /veh MBOAT4 (11741988_at) / RFU 11764193_at / Fold change /veh 11764193_at / RFU TMEM53 (11763286_at) / Fold change /veh TMEM53 (11763286_at) / RFU MAGEB2 (11727129_at) / Fold change /veh MAGEB2 (11727129_at) / RFU TMEM200A (11744735_a_at) / Fold change /veh TMEM200A (11744735_a_at) / RFU CCDC152 (11751479_a_at) / Fold change /veh CCDC152 (11751479_a_at) / RFU FAM211A (11726209_a_at) / Fold change /veh FAM211A (11726209_a_at) / RFU RGS16 (11746705_a_at) / Fold change /veh RGS16 (11746705_a_at) / RFU VCAN (11755009_s_at) / Fold change /veh VCAN (11755009_s_at) / RFU RHOB (11743442_s_at) / Fold change /veh RHOB (11743442_s_at) / RFU RGS16 (11720943_a_at) / Fold change /veh RGS16 (11720943_a_at) / RFU RGS16 (11720944_at) / Fold change /veh RGS16 (11720944_at) / RFU, VPS4B / Fold change vs veh, VPS4B / RFU, CREB1 / Fold change vs veh, CREB1 / RFU, DNAJC13 / Fold change vs veh, DNAJC13 / RFU, GNAQ / Fold change vs veh, GNAQ / RFU, CDK5R1 / Fold change vs veh, CDK5R1 / RFU, ZRANB3 / Fold change vs veh, ZRANB3 / RFU, CUL4A / Fold change vs veh, CUL4A / RFU, CCNY / Fold change vs veh, CCNY / RFU, UFL1 / Fold change vs veh, UFL1 / RFU, COG3 / Fold change vs veh, COG3 / RFU, DIAPH2 / Fold change vs veh, DIAPH2 / RFU, SKA2 / Fold change vs veh, SKA2 / RFU, AFF3 / Fold change vs veh, AFF3 / RFU, LMF1 / Fold change vs veh, LMF1 / RFU, IPO11 / Fold change vs veh, IPO11 / RFU, DFFB / Fold change vs veh, DFFB / RFU, FOXP1 / Fold change vs veh, FOXP1 / RFU, CARD8 / Fold change vs veh, CARD8 / RFU, STRN3 / Fold change vs veh, STRN3 / RFU, ADK / Fold change vs veh, ADK / RFU, RASSF2 / Fold change vs veh, RASSF2 / RFU, WIPF1 / Fold change vs veh, WIPF1 / RFU, LARP1B / Fold change vs veh, LARP1B / RFU, RASA1 / Fold change vs veh, RASA1 / RFU, RB1 / Fold change vs veh, RB1 / RFU, PPFIA1 / Fold change vs veh, PPFIA1 / RFU, MAT2A / Fold change vs veh, MAT2A / RFU, CCT5 / Fold change vs veh, CCT5 / RFU, WDR92 / Fold change vs veh, WDR92 / RFU, CUX1 / Fold change vs veh, CUX1 / RFU, TTC7A / Fold change vs veh, TTC7A / RFU, TMEM135 / Fold change vs veh, TMEM135 / RFU, DEPTOR / Fold change vs veh, DEPTOR / RFU, CPM / Fold change vs veh, CPM / RFU, DNAJB6 / Fold change vs veh, DNAJB6 / RFU, CACNA2D3 / Fold change vs veh, CACNA2D3 / RFU, DTX4 / Fold change vs veh, DTX4 / RFU, TFCP2 / Fold change vs veh, TFCP2 / RFU, GMCL1 /// GMCL1P1 / Fold change vs veh, GMCL1 /// GMCL1P1 / RFU, AEBP2 / Fold change vs veh, AEBP2 / RFU, SNHG1 /// SNORD22 /// SNORD25 /// SNORD26 /// SNORD27 /// SNORD28 /// SNORD29 /// SNORD31 / Fold change vs veh, SNHG1 /// SNORD22 /// SNORD25 /// SNORD26 /// SNORD27 /// SNORD28 /// SNORD29 /// SNORD31 / Fold change (Aza/veh), C12orf56 (ProbeSet 11735607_a_at) / Fold change (ACY-1035/veh), C12orf56 (ProbeSet 11735607_a_at) / Fold change (Aza/veh), FGFR1OP (ProbeSet 11751329_s_at) / Fold change (ACY-1035/veh), FGFR1OP (ProbeSet 11751329_s_at) / Fold change (Aza/veh), VPS36 (ProbeSet 11739960_a_at) / Fold change (ACY-1035/veh), VPS36 (ProbeSet 11739960_a_at) / RFU SYPL1 (11715823_x_at) / Fold change /veh SYPL1 (11715823_x_at) / RFU IGFBP7 (11715501_s_at) / Fold change /veh IGFBP7 (11715501_s_at) / RFU REEP3 (11722064_at) / Fold change /veh REEP3 (11722064_at) / RFU IGLL1 (11728026_x_at) / Fold change /veh IGLL1 (11728026_x_at): dose or concentration left out as unconfirmed
Settings: ProbeSet 11743567_s_at; LIST B

Nc1ccc(-c2cccs2)cc1NC(=O)c1ccc2c(c1)cc(C1CC1)n2CCN1CCOCC1 [ACY-1035]
Fold change vs veh, ACBD3: 0.99
